Test results reported in patent US20180243190A1, “ACTIVATORS OF NRF2-DEPENDENT PHOTOPROTECTION AND RELATED USES THEREOF” (THE ARIZONA BOARD OF REGENTS ON BEHALF OF THE UNIVERSITY OF …, priority 2015, published 2018).

Legend:
SKH-1 mice skin = experiment: Solar UV photodamage model; assay type: in vivo
Description: Next, the feasibility of bixin-induced cutaneous protection was studied in a solar UV photodamage model. Nrf2^+/+ and Nrf2^−/− mice were i.p. injected with either corn oil (carrier control) or bixin (200 mg/kg) 48 h before solar UV exposure (240 mJ/cm^2 UVB; 4.4 J/cm^2 UVA). 24 h after UV exposure back skin tissue was then collected followed by immunohistochemical (IHC) analysis. […] Moreover, UV exposure alone activated the NRF2 response in murine skin, effects not detectable in Nrf2^−/− mice (FIG. 5).
Irradiation with solar UV occurred as described before. A KW large area light source solar simulator, model 91293, from Oriel Corporation (Stratford, Conn.) was used, equipped with a 1000 W Xenon arc lamp power supply, model 68920, and a VIS-IR bandpass blocking filter combined with an atmospheric attenuation filter (output 290-400 nm plus residual 650-800 nm). At 345 mm from the source, the UV dose was 4.4 J/cm^2 UVA+240 mJ/cm^2 UVB radiation.
Nrf2^+/+ and Nrf2^−/− SKH-I mice were obtained by breeding Nrf2 heterozygous mice generated by back-crossing Nrf2^−/− C57BL/6 mice onto the SKH-1 hairless mouse genetic background for at least six generations (JAX® Mice, The Jackson Laboratory). All animals received water and food ad libitum and were handled according to the Guide for the Care and Use of Laboratory Animals; the protocols were approved by the University of Arizona Institutional Animal Care and Use Committee. Eight-week-old Nrf2^+/+ and Nrf2^−/− mice were randomly allocated into four groups (n=6): (i) control (corn oil); (ii) bixin (200 mg/kg, dissolved in corn oil); (iii) UV; (iv) bixin+UV. Bixin was administered through intraperitoneal (i.p.) injection 48 h before UV exposure.
24 h after UV exposure, the mice were euthanized and back skin was collected and divided into two parts: one part was frozen in liquid nitrogen for total RNA extraction and protein analysis; the other part was fixed in 10% buffered formalin and embedded in paraffin for histological and immunohistochemical analyses. Tissue sections (4 μm) were baked and deparaffinized. Hematoxylin and eosin (H&E) staining was performed for pathological examination. Antigen retrieval was carried out by boiling the slides with retrieval solution (citric acid monohydrate 2.1 g/L in H2O pH=6.0) three times for 5 min [43]. Tissue sections were then exposed to 3.5 M HCl for 15 min at room temperature and washed with PBS. Subsequently, tissue sections were treated with 0.3% […] to quench endogenous peroxidase activity. Tissue sections were incubated with 5% normal goat serum for 30 min followed by 2 h incubation with primary antibodies at 1:100 dilution at room temperature. Staining was performed using the EnVision+System-HRP (DAB) kit (Dako) according to the manufacturer's instructions.
An in situ cell death detection kit (Roche) was used for detection of apoptotic cell death in skin sections according to the manufacturer's instructions. Briefly, tissue sections were pretreated with proteinase K (20 μg/ml) in 10 mM Tris/HCl (pH 7.8) at 37° C. for 30 min. After washing three times with PBS, tissue sections were incubated with TUNEL reaction mixture for 1 h at 37° C. in the dark. Tissue sections were then stained with Hoechst, and analyzed using a fluorescence microscope (Zeiss Observer.Zi microscope; slidebook computer program; excitation wavelength: 450-500 nm; detection wavelength: 515-565 nm). Hoechst stain was visualized under UV light.

KEAP1-C151S = target: T1, KEAP1-C151S (Homo sapiens, UniProt Q14145, C151S); assay type: cell-based; details: SF 5 μM, As 5 μM, bixin 40 μM; 16 h
T1 construct: expressed in transfected cells; host or cells: HaCaT human keratinocytes
Excerpt: (§1) Since it has been shown previously that NRF2 activation by canonical inducers (including SF and tBHQ) depends on C (Cys)-151, a critical cysteine residue in KEAP1, the mechanistic involvement of KEAP1-C151 bixin-based NRF2 activation was examined. HaCaT cells were cotransfected with expression vectors for either KEAP1 wild type (KEAP1-WT) or a mutant KEAP1 (KEAP1-C151S; Cys-151 mutated to serine) along with ARE-firefly luciferase and Renilla luciferase reporters to assess NRF2 transcriptional activity (FIG. 3G). After exposure to SF (5 μM), As (sodium arsenite; 5 μM), or bixin (40 μM; all 16 h), NRF2 transcriptional activity was enhanced by all treatments in KEAP1-WT cells, whereas NRF2 activation by SF or bixin was abolished in KEAP1-C151S cells.
(§2) Transfection of cDNA was performed using Lipofectamine 3000 (Invitrogen) according to the manufacturer's instructions. Activation of NRF2 transcriptional activity was performed as previously published. Briefly, HaCaT cells were cotransfected with expression vectors for either KEAP1 wild type (KEAP1-WT) or KEAP1 with a mutation that generates a protein that contains a serine residue instead of a cysteine (KEAP1-C151S), along with NQO1-ARE firefly luciferase and Renilla luciferase reporters. At 24 h post-transfection, cells were left untreated or treated with SF (5 μM), As (5 μM), or bixin (40 μM) for 16 h. The cells were then lysed for analysis of the reporter gene activity using the Promega dual-luciferase reporter gene assay system.

[1] = target: T2, KEAP1 wild type (KEAP1-WT) (Homo sapiens, UniProt Q14145); assay type: cell-based; details: SF 5 μM, As 5 μM, bixin 40 μM; 16 h
T2 construct: expressed in transfected cells; host or cells: HaCaT human keratinocytes
Excerpt: as §1, §2

[2] = 200 mg/kg i.p. 48 h before solar UV, effect confined to Nrf2+/+ mice

T1 sequence (Q14145 whole entry C151S): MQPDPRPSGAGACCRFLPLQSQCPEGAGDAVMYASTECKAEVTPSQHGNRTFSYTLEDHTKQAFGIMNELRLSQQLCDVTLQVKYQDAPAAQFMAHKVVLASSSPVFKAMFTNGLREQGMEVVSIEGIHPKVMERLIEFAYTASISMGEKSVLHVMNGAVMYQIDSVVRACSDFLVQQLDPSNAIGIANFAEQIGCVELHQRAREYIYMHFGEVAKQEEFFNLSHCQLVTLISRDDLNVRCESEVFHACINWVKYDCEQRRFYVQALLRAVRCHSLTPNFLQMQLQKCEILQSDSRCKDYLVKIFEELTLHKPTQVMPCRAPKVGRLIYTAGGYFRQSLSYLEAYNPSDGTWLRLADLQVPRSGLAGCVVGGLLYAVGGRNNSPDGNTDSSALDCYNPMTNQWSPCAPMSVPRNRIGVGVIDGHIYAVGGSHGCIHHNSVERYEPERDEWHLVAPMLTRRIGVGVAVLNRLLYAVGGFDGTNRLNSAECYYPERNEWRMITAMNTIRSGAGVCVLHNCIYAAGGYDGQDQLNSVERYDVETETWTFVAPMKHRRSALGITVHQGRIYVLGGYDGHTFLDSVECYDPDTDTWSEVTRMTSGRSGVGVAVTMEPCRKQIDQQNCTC
T2 sequence (Q14145 whole entry, species assumed): as the sequence (Q14145 whole entry C151S) above, with S151C counted along it

Which results are given for `COC(=O)/C=C/C(C)=C\C=C\C(C)=C\C=C\C=C(C)\C=C\C=C(C)\C=C\C(=O)O` [bixin]?
UV-induced apoptosis (TUNEL-positive cells) (SKH-1 mice skin; [2]): suppressed; UV-induced epidermal thickening (SKH-1 mice skin; [2]): suppressed; cyclobutane pyrimidine dimer (CPD)-lesions (SKH-1 mice skin; Nrf2+/+ and Nrf2−/− mice, 200 mg/kg i.p.): not antagonized; UV-induced epidermal expression of MMP9 (IHC) (SKH-1 mice skin; Nrf2+/+ mice only, 200 mg/kg i.p.): significantly antagonized; UV-elicited keratinocyte hyperproliferation (Ki67 IHC) (SKH-1 mice skin; Nrf2+/+ mice, 200 mg/kg i.p.): suppression; UV-enhanced 8-oxo-dG staining (IHC) (SKH-1 mice skin; Nrf2+/+ mice, 200 mg/kg i.p.): suppressed; UV-induced p-p65 accumulation in the skin (SKH-1 mice skin; Nrf2+/+ mice, 200 mg/kg i.p.): decreased; UV-enhanced 8-oxo-dG staining (IHC) (SKH-1 mice skin; Nrf2−/− mice, 200 mg/kg i.p.): not Nrf2^−/− mice; UV-induced p-p65 accumulation in the skin (SKH-1 mice skin; Nrf2−/− mice, 200 mg/kg i.p.): minimal effects; UV-induced NF-κB target gene expression (IL6, TNFα, MMP9) at the mRNA level (SKH-1 mice skin; observed only in Nrf2+/+ mice, 200 mg/kg i.p.): attenuation; NRF2 activation in KEAP1-C151S cells (KEAP1-C151S): abolished; NRF2 transcriptional activity in KEAP1-WT cells [1]: enhanced
